The values that follow come from ChEMBL document CHEMBL3526152, “Cytoprotective effect of 20S-Rg3 on benzo[a]pyrene-induced DNA damage” (Drug Metab Dispos, 2012).

The source made the active and inactive calls. The calls are words filed in the database; no cut-off is given here.

For data set [1], the system named is HDF. In words: Cytoprotective activity in neonatal HDF assessed as reduction of BaP-induced cell death at 10 uM after 24 hrs by MTT assay. The format is functional. The note with it: Homo sapiens.
The nature of data set [2]: Cytoprotective activity in neonatal HDF assessed as reduction of BaP-induced DNA strand breakage by measuring tunnel positive cells at 10 uM after 24 hrs (reference value: 15.96%). On the set-up: scale not given: the % may be the effect or the level left. The format is functional, Homo sapiens.
Data set [3] in a line: Cytotoxicity against neonatal HDF assessed as cell viability at 10 uM after 24 hrs by MTT assay relative to control. To be noted: Homo sapiens, read-out: Activity. The format is functional. On the technique in general: Tetrazolium assays rely on reduction of a dye to a coloured formazan, in cell work by metabolically active cells.
For data set [4], the system named is HDF. In words: Cytoprotective activity in neonatal HDF assessed as reduction of BaP-induced tail moment at 10 uM after 24 hrs by comet assay. The note with it: Homo sapiens. The format is functional.
The test system of data set [5] is HDF. In words: Cytoprotective activity in neonatal HDF assessed as reduction of BaP-induced tail moment at 10 uM after 24 hrs by comet assay in presence of PI3K/Akt inhibitor LY294002. Type of data set: functional. To be noted: Homo sapiens.
Data set [6] concerns HepG2. In words: Cytoprotective activity in human HepG2 cells transfected with siPXR assessed as reduction of BaP-induced tail moment at 10 uM after 24 hrs by comet assay. The format is functional, cell-based.
Data set [7] concerns the target RAC-alpha serine/threonine-protein kinase (Homo sapiens) (UniProt P31749). In words: Induction of AKT phosphorylation at Ser473 in neonatal HDF at 10 uM by Western blot analysis. To be noted: TDE = time-dependent effect. (In general: In western blotting, separated proteins are transferred to a membrane and probed.)
Data set [8] has as its target T1, Nuclear factor erythroid 2-related factor 2 (Homo sapiens) (UniProt Q16236).
T1 sequence (whole entry): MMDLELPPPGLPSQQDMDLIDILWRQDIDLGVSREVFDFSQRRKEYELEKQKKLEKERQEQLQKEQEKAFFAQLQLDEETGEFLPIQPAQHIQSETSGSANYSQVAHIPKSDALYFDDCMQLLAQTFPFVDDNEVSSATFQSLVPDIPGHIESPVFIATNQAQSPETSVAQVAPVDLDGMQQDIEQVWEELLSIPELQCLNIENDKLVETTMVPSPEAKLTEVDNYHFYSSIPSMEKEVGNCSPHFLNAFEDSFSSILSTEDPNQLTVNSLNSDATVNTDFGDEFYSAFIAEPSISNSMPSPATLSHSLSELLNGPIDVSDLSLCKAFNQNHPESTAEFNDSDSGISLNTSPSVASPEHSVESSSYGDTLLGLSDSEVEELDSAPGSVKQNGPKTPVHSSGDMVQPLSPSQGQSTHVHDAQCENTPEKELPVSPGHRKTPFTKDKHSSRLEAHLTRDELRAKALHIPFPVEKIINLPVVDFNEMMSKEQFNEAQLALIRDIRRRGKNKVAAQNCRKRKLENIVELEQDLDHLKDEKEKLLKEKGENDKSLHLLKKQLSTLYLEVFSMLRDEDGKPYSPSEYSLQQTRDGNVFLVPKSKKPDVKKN
In words: Induction of Nrf2 nuclear translocation in BaP-treated neonatal HDF at 10 uM after 2 hrs by DAPI staining-based confocal scanning laser microcopic analysis.

Data set [9] has as its system HepG2. In words: Cytoprotective activity in human HepG2 cells assessed as reduction of BaP-induced tail moment at 10 uM after 24 hrs by comet assay. Type of data set: functional, cell-based.
Data set [10] addresses T1, Nuclear factor erythroid 2-related factor 2 (Homo sapiens). In words: Induction of Nrf2 nuclear translocation in BaP-treated neonatal HDF at 10 uM after 2 hrs by DAPI staining-based confocal scanning laser microcopic analysis in presence of PI3K/Akt inhibitor LY294002.
In a further data set the test system is Plasma. In words: Plasma concentration in human at 60 mg by HPLC-MS analysis. Type of data set: ADME.
The species entered for another data set is Homo sapiens. In words: Induction of ERK phosphorylation at Thr202/Try204 in neonatal HDF at 10 uM by Western blot analysis. The note with it: TDE = time-dependent effect.
For data set [11], the target named is T1, Nuclear factor erythroid 2-related factor 2 (Homo sapiens). In words: Induction of Nrf2 nuclear translocation in neonatal HDF at 10 uM after 2 hrs by DAPI staining-based confocal scanning laser microcopic analysis.
The target is the same in data set [12]. In words: Induction of Nrf2 nuclear translocation in BaP-treated neonatal HDF assessed as upregulation of NQO1 mRNA expression at 10 uM after 24 hrs by real-time PCR analysis relative to BaP-treated control. In general terms: In qPCR the cycle at which signal appears reflects the starting amount.
The target in data set [13] is T2, Nuclear receptor subfamily 1 group I member 2 (Homo sapiens, UniProt O75469).
T2 sequence (O75469 whole entry): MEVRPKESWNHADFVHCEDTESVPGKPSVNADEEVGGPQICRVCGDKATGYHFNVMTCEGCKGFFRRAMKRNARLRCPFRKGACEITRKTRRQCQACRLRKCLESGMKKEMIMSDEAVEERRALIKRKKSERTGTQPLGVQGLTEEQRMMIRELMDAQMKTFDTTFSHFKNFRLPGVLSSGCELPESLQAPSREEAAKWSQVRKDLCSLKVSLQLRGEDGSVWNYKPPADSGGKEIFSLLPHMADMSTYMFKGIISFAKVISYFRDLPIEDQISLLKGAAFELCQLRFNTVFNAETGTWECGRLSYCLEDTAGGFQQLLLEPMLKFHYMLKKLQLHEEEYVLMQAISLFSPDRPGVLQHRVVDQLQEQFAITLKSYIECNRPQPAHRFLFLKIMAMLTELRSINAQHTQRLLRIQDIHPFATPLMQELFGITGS
In words: Competitive binding affinity to PXR in human HepG2 cells at 0.01 to 50 uM by FRET analysis in presence of […]. The format is cell-based.

Chain of RAC-alpha serine/threonine-protein kinase (Homo sapiens) (P31749 whole entry): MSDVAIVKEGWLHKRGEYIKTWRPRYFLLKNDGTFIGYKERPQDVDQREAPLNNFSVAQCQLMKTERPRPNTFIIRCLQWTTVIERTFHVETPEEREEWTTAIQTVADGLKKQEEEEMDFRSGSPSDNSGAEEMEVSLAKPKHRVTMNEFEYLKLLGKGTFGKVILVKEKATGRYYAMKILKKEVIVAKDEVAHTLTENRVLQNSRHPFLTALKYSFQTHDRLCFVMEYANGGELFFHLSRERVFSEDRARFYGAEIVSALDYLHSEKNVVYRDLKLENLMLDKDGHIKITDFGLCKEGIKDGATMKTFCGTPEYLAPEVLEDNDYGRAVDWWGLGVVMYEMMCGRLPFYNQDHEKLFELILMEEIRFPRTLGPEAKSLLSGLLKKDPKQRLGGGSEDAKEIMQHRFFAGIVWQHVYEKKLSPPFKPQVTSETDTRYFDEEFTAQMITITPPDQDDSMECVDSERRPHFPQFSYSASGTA

For `CC(C)=CCC[C@](C)(O[C@@H]1O[C@H](CO)[C@@H](O)[C@H](O)[C@H]1O)[C@H]1CC[C@]2(C)[C@@H]1[C@H](O)C[C@@H]1[C@@]3(C)CC[C@H](O)C(C)(C)[C@@H]3[C@@H](O[C@@H]3O[C@H](CO)[C@@H](O)[C@H](O)[C@H]3O)C[C@]12C` [GINSENOSIDE RG1], the result in the data set on HDF [1] and with HDF [4] was inactive. The Activity in data set [2] stood at 20.97%. For the same compound, the viability at 10 µM in data set [3] amounted to 98%.

With `CC(C)=CCC[C@@](C)(O)[C@H]1CC[C@]2(C)[C@@H]1[C@H](O)C[C@@H]1[C@@]3(C)CC[C@H](O[C@@H]4O[C@H](CO)[C@@H](O)[C@H](O)[C@H]4O[C@@H]4O[C@H](CO)[C@@H](O)[C@H](O)[C@H]4O)C(C)(C)[C@@H]3CC[C@]12C`, the result in the data set on HDF [1] and in the data set on HDF [4] was inactive. Also, the Activity in [2] stood at 12.76%. In [3], the viability at 10 µM is 105%.

With `CC(C)=CCC[C@](C)(O[C@@H]1O[C@H](CO[C@@H]2O[C@H](CO)[C@@H](O)[C@H](O)[C@H]2O)[C@@H](O)[C@H](O)[C@H]1O)[C@H]1CC[C@]2(C)[C@@H]1[C@H](O)C[C@@H]1[C@@]3(C)CC[C@H](O[C@@H]4O[C@H](CO)[C@@H](O)[C@H](O)[C@H]4O[C@@H]4O[C@H](CO)[C@@H](O)[C@H](O)[C@H]4O)C(C)(C)[C@@H]3CC[C@]12C` [GINSENOSIDE RB1], the result with HDF [1] and in the data set on HDF [4] was inactive. For the same compound, the Activity in data set [2] is on record as 9.77%. For the same compound, the viability at 10 µM in data set [3] was determined as 91%.

As to `CC(C)=CCC[C@](C)(O)[C@H]1CC[C@]2(C)[C@@H]1[C@H](O)C[C@@H]1[C@@]3(C)CC[C@H](O[C@@H]4O[C@H](CO)[C@@H](O)[C@H](O)[C@H]4O[C@@H]4O[C@H](CO)[C@@H](O)[C@H](O)[C@H]4O)C(C)(C)[C@@H]3CC[C@]12C`, the outcome (in the data set on HDF [5]; in the data set with HepG2 [6]; in [10]) was inactive. Moreover, the result (in the data set with HDF [1]; in data set [8]; in the data set with HepG2 [9]; in [11]; in the data set with HDF [4]) was Active. Further, the Activity result in data set [7] was “tde”; in the data set filed under Homo sapiens it was “tde”; in data set [2], 3.07%; in data set [13], “Active”. The concentration in the data set on Plasma is 3 nM. In addition, the fold change (FC) in [12] was determined as 2. In addition, the viability at 10 µM in [3] stood at 124%.
